# Target: CDK2 (UniProt P24941)
# Assay: Enzyme Assay
row,SMILES,IC50 [nM]
1,NC(=O)N1CCC(c2cc(NCc3cccnc3)n3ncc(Br)c3n2)CC1,0.1 to 100
2,Brc1cnn2c(NCc3ccc4[nH]cnc4c3)cc(C3CCNCC3)nc12,0.1 to 100
3,[O-][n+]1cc(CNc2cc(-c3ccccc3)nc3c(Br)cnn23)ccc1OCC(F)(F)F,0.1 to 100
4,N[C@H]1CC[C@H](Nc2cc(NCc3cccnc3)n3ncc(Br)c3n2)CC1,0.1 to 100
5,CC(C)c1cc(NCc2ccc[n+]([O-])c2)n2ncc(Br)c2n1,0.1 to 100
6,Oc1cc(CNc2cc(C3CCCCC3)nc3c(Br)cnn23)ccn1,0.1 to 100
7,Fc1ccccc1-c1cc(NCc2ccc3[nH]cnc3c2)n2ncc(Br)c2n1,0.1 to 100
8,NC(=O)N1CCCC(c2cc(NCc3cccnc3)n3ncc(Br)c3n2)C1 (configuration not stated),0.1 to 100
9,CS(=O)(=O)N1CCCC(c2cc(NCc3cccnc3)n3ncc(Br)c3n2)C1 (configuration not stated),0.1 to 100
10,CCc1cnn2c(NCc3ccc[n+]([O-])c3)cc(-c3ccccc3)nc12,0.1 to 100
11,CNC(=O)c1ccc(CNc2cc(-c3ccccc3F)nc3c(Br)cnn23)cc1,0.1 to 100
12,CCc1cnn2c(NCc3ccc(OC)[n+]([O-])c3)cc(-c3ccccc3F)nc12,0.1 to 100
13,Cc1ccccc1-c1cc(NCc2ccc[n+]([O-])c2)n2ncc(Br)c2n1,0.1 to 100
14,O=c1cc(CNc2cc(-c3ccccc3)nc3c(Br)cnn23)cc[nH]1,0.1 to 100
15,O=c1ccc(CNc2cc(C3CCCCC3)nc3c(Br)cnn23)c[nH]1,0.1 to 100
16,Brc1cnn2c(NCc3cccnc3)cc(C3CCCNC3)nc12 (configuration not stated),0.1 to 100
17,Brc1cnn2c(NCc3cccnc3)cc(C3CCCCC3)nc12,0.1 to 100
18,Cn1cnc2cc(CNc3cc(-c4ccccc4)nc4c(Br)cnn34)ccc21,0.1 to 100
19,Brc1cnn2c(NCc3ccc(-c4csnn4)cc3)cc(C3CCNCC3)nc12,0.1 to 100
20,CC(C)Oc1ccc(CNc2cc(-c3ccccc3F)nc3c(Br)cnn23)c[n+]1[O-],0.1 to 100

row,SMILES,IC50 [nM]
1,OC[C@H]1CCCC[C@H]1c1cc(NCc2cccnc2)n2ncc(Br)c2n1,0.1 to 100
2,CC(C)[C@@H](CO)Nc1cc(NCc2ccc[n+]([O-])c2)n2ncc(Br)c2n1,0.1 to 100
3,[O-][n+]1cccc(CNc2cc(-c3ccccc3)nc3c(Br)cnn23)c1,0.1 to 100
4,CC(C)(O)[C@@H]1CCCN1c1cc(NCc2ccc[n+]([O-])c2)n2ncc(Br)c2n1,0.1 to 100
5,CCc1cnn2c(NCc3ccc[n+]([O-])c3)cc(C3CCCCC3)nc12,0.1 to 100
6,OCC1CCCCN1c1cc(NCc2cccnc2)n2ncc(Br)c2n1 (configuration not stated),0.1 to 100
7,CCc1cnn2c(NCc3cccnc3)cc(-c3ccccc3)nc12,0.1 to 100
8,O=c1ccc(CNc2cc(-c3ccccc3F)nc3c(Br)cnn23)c[nH]1,0.1 to 100
9,CCc1cnn2c(NCc3ccc[n+]([O-])c3)cc(-c3ccccc3F)nc12,0.1 to 100
10,O=C(C1CC1)N1CCC(c2cc(NCc3cccnc3)n3ncc(Br)c3n2)CC1,0.1 to 100
11,CS(=O)(=O)N1CCC(c2cc(NCc3cccnc3)n3ncc(Br)c3n2)CC1,0.1 to 100
12,COc1ccc(CNc2cc(-c3ccccc3F)nc3c(Br)cnn23)c[n+]1[O-],0.1 to 100
13,OC[C@H]1CCCC[C@H]1Nc1cc(NCc2cccnc2)n2ncc(Br)c2n1,0.1 to 100
14,CC(=O)N1CCC(c2cc(NCc3cccnc3)n3ncc(Br)c3n2)CC1,0.1 to 100
15,[O-][n+]1cccc(CNc2cc(-c3ccc(Cl)cc3)nc3c(Br)cnn23)c1,0.1 to 100
16,[O-][n+]1cccc(CNc2cc(-c3ccccc3F)nc3c(Br)cnn23)c1,0.1 to 100
17,[O-][n+]1cccc(CNc2cc(C3CCNCC3)nc3c(Br)cnn23)c1,0.1 to 100
18,[O-][n+]1cccc(CNc2cc(-c3ccco3)nc3c(Br)cnn23)c1,0.1 to 100
19,Brc1cnn2c(NCc3cccnc3)cc(C3CCNCC3)nc12,0.1 to 100
20,[O-][n+]1cccc(CNc2cc(-c3cccs3)nc3c(Br)cnn23)c1,0.1 to 100

# Results, then the molecule that gave them:
row,IC50 [nM],SMILES
1,0.1 to 100,Brc1cnn2c(NCc3cccnc3)cc(-c3ccco3)nc12
2,0.1 to 100,Brc1cnn2c(NCc3cccnc3)cc(C3CCOCC3)nc12
3,0.1 to 100,CCOc1ccc(CNc2cc(-c3ccccc3)nc3c(Br)cnn23)c[n+]1[O-]
4,0.1 to 100,[O-][n+]1cccc(CNc2cc(C3CCCCC3)nc3c(Br)cnn23)c1
5,0.1 to 100,[O-][n+]1cccc(CNc2cc(-c3ccccc3Cl)nc3c(Br)cnn23)c1
6,0.1 to 100,Brc1cnn2c(NCc3cccnc3)cc(-c3ccccc3)nc12
7,0.1 to 100,O=c1ccc(CNc2cc(-c3ccccc3)nc3c(Br)cnn23)c[nH]1
8,0.1 to 100,Nc1ncc(CNc2cc(C3CCCNC3)nc3c(Br)cnn23)cn1 (configuration not stated)
9,0.1 to 100,CC(C)[C@H](CO)Nc1cc(NCc2ccc[n+]([O-])c2)n2ncc(Br)c2n1
10,0.1 to 100,CCc1cnn2c(NCc3ccnc(O)c3)cc(-c3ccccc3)nc12
11,0.1 to 100,CC(C)(CO)Nc1cc(NCc2cccnc2)n2ncc(Br)c2n1
12,0.1 to 100,OCC[C@@H]1CCCN1c1cc(NCc2cccnc2)n2ncc(Br)c2n1
13,0.1 to 100,CC(=O)N1CCCC(c2cc(NCc3cccnc3)n3ncc(Br)c3n2)C1 (configuration not stated)
14,0.1 to 100,CC(C)(O)[C@@H]1CCCN1c1cc(NCc2cccnc2)n2ncc(Br)c2n1
15,0.1 to 100,Brc1cnn2c(NCc3ccc4[nH]cnc4c3)cc(C3CCCCC3)nc12
16,0.1 to 100,CC1(C)[C@@H]2[C@@H](CO)N(c3cc(NCc4cccnc4)n4ncc(Br)c4n3)C[C@@H]21
17,0.1 to 100,OCCC1CCCCN1c1cc(NCc2cccnc2)n2ncc(Br)c2n1 (configuration not stated)
18,0.1 to 100,CC(C)(O)[C@H]1CCCC[C@H]1c1cc(NCc2cccnc2)n2ncc(Br)c2n1
19,0.1 to 100,OCC1(Nc2cc(NCc3cccnc3)n3ncc(Br)c3n2)CCCC1
20,0.1 to 100,COc1c(Cl)cc(CNc2cc(-c3ccccc3)nc3c(Br)cnn23)c[n+]1[O-]
21,0.1 to 100,[O-][n+]1cccc(CNc2cc(N3CCC[C@H]3CO)nc3c(Br)cnn23)c1
22,0.1 to 100,[O-][n+]1cccc(CNc2cc(C3CCOCC3)nc3c(Br)cnn23)c1

# — the Kinase Knowledgebase extract (Sharma et al. 2016)
